The values below come from US8569484B2, “Heterocyclic urea derivatives and methods of use thereof” (Astrazeneca AB, priority 2009, dated 2013).

The target in one assay is S. aureus GyrB ATPase (Staphylococcus aureus, UniProt P0A0K8). Kind of assay: S. aureus GyrB ATPase inhibition (ammonium molybdate/malachite green phosphate detection). The format is biochemical. To be noted: 1 μM compound; S. aureus GyrB ATPase; read-out: Percent Inhibition (1 μM). As to the method: S. aureus GyrB ATPase Inhibition Activity: Compounds may be tested for inhibition of S. aureus GyrB ATPase activity using an ammonium molybdate/malachite green-based phosphate detection assay (Lanzetta, P. A., L. J. Alvarez, P. S. Reinach, and O. A. Candia, 1979, 100: 95-97). Assays can be performed in multiwell plates in 30 μl reactions containing: 50 mM Hepes buffer pH 7.5, 75 mM ammonium acetate, 8.0 mM magnesium chloride, 0.5 mM ethylenediaminetetraacetic acid, 5% glycerol, 1.0 mM 1,4-Dithio-DL-threitol, 200 nM bovine serum albumin, 1.0 μg/ml sheared salmon sperm DNA, 250 pM E. coli GyrA, 250 pM S. aureus GyrB, 250 μM ATP, and compound in dimethylsulfoxide. Reactions can be quenched with 30 μl of ammonium molybdate/malachite green detection reagent containing 1.2 mM malachite green hydrochloride, 8.5 mM ammonium molybdate tetrahydrate, and 1 M hydrochloric acid. Plates can be read in an absorbance plate reader at 650 nm and percent inhibition values can be calculated using dimethylsulfoxide (2%)-containing reactions as 0% inhibition and EDTA-containing ([…]) reactions as 100% inhibition controls. An IC50 measurement of compound potency for each compound can be determined from reactions performed in the presence of 10 different compound concentrations.
Sequence of S. aureus GyrB ATPase (P0AES4 whole entry): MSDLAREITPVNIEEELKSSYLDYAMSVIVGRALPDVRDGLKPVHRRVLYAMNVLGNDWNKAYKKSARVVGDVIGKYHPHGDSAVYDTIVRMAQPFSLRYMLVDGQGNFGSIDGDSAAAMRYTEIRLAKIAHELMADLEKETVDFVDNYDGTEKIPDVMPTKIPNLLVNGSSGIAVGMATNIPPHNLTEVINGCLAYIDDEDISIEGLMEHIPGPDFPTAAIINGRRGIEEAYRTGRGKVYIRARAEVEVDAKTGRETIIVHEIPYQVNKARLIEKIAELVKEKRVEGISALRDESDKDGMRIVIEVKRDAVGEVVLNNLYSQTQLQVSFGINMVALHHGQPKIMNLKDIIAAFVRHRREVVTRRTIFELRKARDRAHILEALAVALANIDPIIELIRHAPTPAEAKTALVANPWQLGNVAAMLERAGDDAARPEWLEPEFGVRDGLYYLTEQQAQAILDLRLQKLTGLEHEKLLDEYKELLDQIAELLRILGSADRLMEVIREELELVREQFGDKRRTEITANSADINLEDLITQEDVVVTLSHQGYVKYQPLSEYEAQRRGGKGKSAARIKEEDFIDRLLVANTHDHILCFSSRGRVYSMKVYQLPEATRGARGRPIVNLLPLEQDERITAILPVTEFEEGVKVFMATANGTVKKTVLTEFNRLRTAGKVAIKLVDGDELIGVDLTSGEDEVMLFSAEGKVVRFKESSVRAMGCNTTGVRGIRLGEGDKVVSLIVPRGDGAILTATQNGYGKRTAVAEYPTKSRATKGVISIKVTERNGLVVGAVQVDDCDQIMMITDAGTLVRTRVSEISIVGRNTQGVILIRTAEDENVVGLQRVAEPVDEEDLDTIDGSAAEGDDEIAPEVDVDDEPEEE
Sequence of S. aureus GyrB ATPase (P0A0K8 whole entry): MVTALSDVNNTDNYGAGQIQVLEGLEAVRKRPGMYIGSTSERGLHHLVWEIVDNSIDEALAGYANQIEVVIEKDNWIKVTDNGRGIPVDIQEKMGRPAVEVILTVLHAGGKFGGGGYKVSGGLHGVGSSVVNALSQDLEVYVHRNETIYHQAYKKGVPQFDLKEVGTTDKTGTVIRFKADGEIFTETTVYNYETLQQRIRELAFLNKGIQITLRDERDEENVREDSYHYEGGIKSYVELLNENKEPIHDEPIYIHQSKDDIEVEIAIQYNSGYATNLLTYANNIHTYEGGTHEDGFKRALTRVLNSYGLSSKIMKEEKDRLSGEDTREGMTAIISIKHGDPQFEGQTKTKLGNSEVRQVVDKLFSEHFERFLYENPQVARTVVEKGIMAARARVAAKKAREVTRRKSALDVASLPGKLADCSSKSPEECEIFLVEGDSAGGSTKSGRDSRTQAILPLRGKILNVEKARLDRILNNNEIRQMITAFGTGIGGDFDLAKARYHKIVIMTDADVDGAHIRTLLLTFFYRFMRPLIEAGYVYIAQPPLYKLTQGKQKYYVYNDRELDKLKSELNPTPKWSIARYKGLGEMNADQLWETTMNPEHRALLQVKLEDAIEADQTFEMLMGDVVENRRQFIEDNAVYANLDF

The subject of a further assay is S. aureus. The assay can be described thus: Bacterial susceptibility testing in liquid media (MIC). The format is cell-based. To be noted: Staphylococcus aureus; against S. aureus; lowest concentration able to reduce growth by 80% or more. From the text:
Compounds may be tested for antimicrobial activity by susceptibility testing in liquid media. Compounds may be dissolved in dimethylsulfoxide and tested in 10 doubling dilutions in the susceptibility assays. The organisms used in the assay may be grown overnight on suitable agar media and then suspended in a liquid medium appropriate for the growth of the organism. The suspension can be a 0.5 McFarland and a further 1 in 10 dilution can be made into the same liquid medium to prepare the final organism suspension in 100 μL. Plates can be incubated under appropriate conditions at 37° C. for 24 hrs prior to reading. The Minimum Inhibitory Concentration (MIC) may be determined as the lowest drug concentration able to reduce growth by 80% or more.

Converted amounts (≈) assume the structure as drawn.

As to `CCNC(=O)Nc1cc(-c2nc(C(F)(F)F)cs2)c(-c2cnc3c(c2)c(=O)c(C(=O)O)cn3CCO)cn1` [Example 10, 6-{6-[(ethylcarbamoyl)amino]-4-[4-(trifluoromethyl)-1,3-thiazol-2-yl]pyridin-3-yl}-1-(2-hydroxyethyl)-4-oxo-1,4-dihydro-1,8-naphthyridine-3-carboxylic acid], the inhibition at 1 µM at S. aureus GyrB ATPase was found to be 93%. The MIC with S. aureus worked out at 0.55 µM (≈ 0.302 µg/mL).

Take `CCNC(=O)Nc1cc(-c2nc(C(F)(F)F)cs2)c(-c2cc3c(=O)c(C(=O)O)cn(CC)c3nc2N2CCC(N)C2)cn1` (stereo not shown) [Example 77]: the inhibition at 1 µM at S. aureus GyrB ATPase came out at 105%.

As to `CCNC(=O)Nc1cc(-c2nc(C(F)(F)F)cs2)c(-c2cc3c(=O)c(C(=O)O)cn([C@H](CO)C(C)(C)C)c3nc2N2CCC(N)C2)cn1` (stereo partly drawn) [Example 78, 7-(3-aminopyrrolidin-1-yl)-6-(6-(3-ethylureido)-4-(4-(trifluoromethyl)thiazol-2-yl)pyridin-3-yl)-1-((S)-1-hydroxy-3,3-dimethylbutan-2-yl)-4-oxo-1,4-dihydro-1,8-naphthyridine-3-carboxylic acid], at S. aureus GyrB ATPase, the inhibition at 1 µM came out at 98%.

The term inhibition denotes the change of the read-out against control, counted positive when it falls. As usually defined, the MIC is the least concentration at which growth counts as inhibited. A low value points to greater potency.
